The values below come from patent US20250195530A1, “POLQ INHIBITORS” (ASTRAZENECA AB, priority 2022, published 2025).

One experiment relates to DLD-1 BRCA2−/− cells. The experiment can be described thus: Homologous recombination synthetic lethal inhibition of proliferation, DLD-1 BRCA2-/- (Cell Titre Glo 3D). Format: cell-based. The following applies: DLD-1 BRCA2 −/−, mean. The method, boiled down:
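Luminescent Cell Titre Glo 3D readout, taken on day 12 for homologous-recombination-deficient DLD-1 BRCA2−/− and day 7 for the wild-type control, after compound refresh on day 6. Compounds spanned 10 μM to 0.51 nM in three-fold steps; IC50 defined as 50% reduction of average maximum signal.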
`CC(COc1cccc(-c2nc3c(OC4(C)CC4)ncnc3n2Cc2cc(Cl)ccc2F)c1Cl)CC(=O)O` (single isomer, unassigned) [Example U34, 4-(2-chloro-3-(9-(5-chloro-2-fluorobenzyl)-6-(1-methylcyclopropoxy)-9H-purin-8-yl)phenoxy)-3-methylbutanoic acid]: the “POLQ PD Prolif Lumin BRCA2 −/− mean pIC50” value is 7.5.

With `CC1(Oc2ncnc3c2nc(-c2ccc(O[C@H]4CC[C@H](C(=O)O)CC4)cc2Cl)n3Cc2ccccc2C#N)CC1` [Example U19, (1r,4r)-4-(3-chloro-4-(9-(2-cyanobenzyl)-6-(1-methylcyclopropoxy)-9H-purin-8-yl)phenoxy)cyclohexane-1-carboxylic acid], the “POLQ PD Prolif Lumin BRCA2 −/− mean pIC50” value stood at 6.6.

The experiment is the same for the next values; noted with them: Homo sapiens, DLD-1, DLD-1 BRCA2-/- proliferation; column head only partly shown; read-out: POLQ PD Prolif Lumin (converted).
In the case of `CCNC(=O)COc1ccc(-c2nc3c(OC4(C)CC4)ncnc3n2Cc2cc(C)ccn2)c(Cl)c1` [Example T221, 2-(3-chloro-4-(6-(1-methylcyclopropoxy)-9-((4-methylpyridin-2-yl)methyl)-9H-purin-8-yl)phenoxy)-N-ethylacetamide], the IC50 was 316 nM.

As for `Cc1ccnc(Cn2c(-c3ccc(CC(=O)NCCO)cc3Cl)nc3c(OC4(C)CC4)ncnc32)c1` [Example T224, 2-(3-chloro-4-(6-(1-methylcyclopropoxy)-9-((4-methylpyridin-2-yl)methyl)-9H-purin-8-yl)phenyl)-N-(2-hydroxyethyl)acetamide], the IC50 was 1000 nM.

Regarding `Cc1ccnc(Cn2c(-c3ccc(N4CCNCC4=O)cc3Cl)nc3c(OC4(C)CC4)ncnc32)c1` [Example T202, 1-(3-chloro-4-(6-(1-methylcyclopropoxy)-9-((4-methylpyridin-2-yl)methyl)-9H-purin-8-yl)phenyl)piperazin-2-one], the IC50 is 2510 nM.

For the compound `CC(=O)NCCOc1ccc(-c2nc3c(OC4(C)CC4)ncnc3n2Cc2cc(C)ccn2)c(Cl)c1` [Example T219, N-(2-(3-chloro-4-(6-(1-methylcyclopropoxy)-9-((4-methylpyridin-2-yl)methyl)-9H-purin-8-yl)phenoxy)ethyl)acetamide], the IC50 is 251 nM.

Staying with this experiment, now noted: Homo sapiens, DLD-1, DLD-1 BRCA2 −/− cells; mean; read-out: POLQ PD Prolif Lumin BRCA2 −/− mean pIC50 (converted).
In the case of `Cc1cnnc(Cn2c(-c3ccc(CC(N)=O)cc3Cl)nc3c(OC4(C)CC4)ncnc32)c1` [Example T18, 2-(3-chloro-4-(6-(1-methylcyclopropoxy)-9-((5-methylpyridazin-3-yl)methyl)-9H-purin-8-yl)phenyl)acetamide], the IC50 was more than 10000 nM.

Consider `CC1(Oc2ncnc3c2nc(-c2ccc(CC(N)=O)cc2Cl)n3Cc2cccc(F)c2)CC1` [Example T42, 2-(3-chloro-4-(9-(3-fluorobenzyl)-6-(1-methylcyclopropoxy)-9H-purin-8-yl)phenyl)acetamide], for which the IC50 is 158 nM.

As to `CC1(Oc2ncnc3c2nc(-c2ccc(CC(N)=O)cc2Cl)n3Cc2ccccc2C#N)CC1` [Example T82, 2-(3-chloro-4-(9-(2-cyanobenzyl)-6-(1-methylcyclopropoxy)-9H-purin-8-yl)phenyl)acetamide], the IC50 is 316 nM.

`Cc1ccnc(Cn2c(-c3ccc(N4CCC4=O)cc3Cl)nc3c(OC4(C)CC4)ncnc32)c1` [Example T95, 1-(3-chloro-4-(6-(1-methylcyclopropoxy)-9-((4-methylpyridin-2-yl)methyl)-9H-purin-8-yl)phenyl)azetidin-2-one]: the IC50 is 200 nM.

The experiment is the same for the next values; noted with them: Homo sapiens, DLD-1, DLD-1 BRCA2 −/−, mean; read-out: POLQ PD Prolif Lumin BRCA2 −/− mean pIC50 (converted).
With `Cc1ccc(Cl)cc1Cn1c(-c2ccc(OCCC(C)C(=O)O)cc2Cl)nc2c(OC3(C)CC3)ncnc21` (racemic) [Example U36, 4-(3-chloro-4-(9-(5-chloro-2-methylbenzyl)-6-(1-methylcyclopropoxy)-9H-purin-8-yl)phenoxy)-2-methylbutanoic acid], the IC50 was 316 nM.

Take `CC(COc1cccc(-c2nc3c(OC4(C)CC4)ncnc3n2Cc2cc(Cl)ccc2F)c1Cl)CC(=O)O` (single isomer, unassigned) [Example U33, 4-(2-chloro-3-(9-(5-chloro-2-fluorobenzyl)-6-(1-methylcyclopropoxy)-9H-purin-8-yl)phenoxy)-3-methylbutanoic acid]: the IC50 is 15.8 nM.

Consider `COc1c(F)cc(Cl)cc1Cn1c(-c2ccc(OCCC(C)C(=O)O)cc2Cl)nc2c(OC3(C)CC3)ncnc21` (racemic) [Example U61, 4-(3-chloro-4-(9-(5-chloro-3-fluoro-2-methoxybenzyl)-6-(1-methylcyclopropoxy)-9H-purin-8-yl)phenoxy)-2-methylbutanoic acid], for which the IC50 was 158 nM.

On to `COc1ccccc1Cn1c(-c2ccc(OCCC(C)C(=O)O)cc2Cl)nc2c(OC3(C)CC3)ncnc21` (racemic) [Example U4, 4-(3-chloro-4-(9-(2-methoxybenzyl)-6-(1-methylcyclopropoxy)-9H-purin-8-yl)phenoxy)-2-methylbutanoic acid], for which the IC50 was 251 nM.

In the case of `CC(CCOc1ccc(-c2nc3c(OC4(C)CC4)ncnc3n2Cc2cc(Cl)ccc2OC(F)F)c(Cl)c1)C(=O)O` (racemic) [Example U60, 4-(3-chloro-4-(9-(5-chloro-2-(difluoromethoxy)benzyl)-6-(1-methylcyclopropoxy)-9H-purin-8-yl)phenoxy)-2-methylbutanoic acid], the IC50 is 126 nM.

Still in this experiment, the particulars now being: Homo sapiens, DLD-1, first proliferation column (c5), taken as DLD-1 BRCA2-/-; read-out: POLQ PD Prolif Lumin (converted).
Consider `CC[C@@H](O)CNC(=O)c1ccc(-c2nc3c(OC4(C)CC4)ncnc3n2Cc2cc(C)ccn2)c(Cl)c1` [Example T365, (R)-3-chloro-N-(2-hydroxybutyl)-4-(6-(1-methylcyclopropoxy)-9-((4-methylpyridin-2-yl)methyl)-9H-purin-8-yl)benzamide], for which the IC50 is 794 nM.

With `CC1(Oc2ncnc3c2nc(-c2ccc(OCCN4CCNCC4)cc2Cl)n3Cc2ncccc2F)CC1` [Example T351, 8-(2-chloro-4-(2-(piperazin-1-yl)ethoxy)phenyl)-9-((3-fluoropyridin-2-yl)methyl)-6-(1-methylcyclopropoxy)-9H-purine], the IC50 was 3160 nM.

As for `Cc1ccnc(Cn2c(-c3ccc(N4CC[C@H](C(N)=O)C4)cc3Cl)nc3c(OC4(C)CC4)ncnc32)c1` [Example T340, (S)-1-(3-chloro-4-(6-(1-methylcyclopropoxy)-9-((4-methylpyridin-2-yl)methyl)-9H-purin-8-yl)phenyl)pyrrolidine-3-carboxamide], the IC50 is 1260 nM.

Still in this experiment, the particulars now being: Homo sapiens, DLD-1, first proliferation column (c5); DLD-1 BRCA2-/-; read-out: POLQ PD Prolif Lumin (converted).
On to `Cc1ccnc(Cn2c(-c3ccc(OCC(=O)N[C@H](C)CCO)cc3Cl)nc3c(OC4(C)CC4)ncnc32)c1` [Example T516, (R)-2-(3-chloro-4-(6-(1-methylcyclopropoxy)-9-((4-methylpyridin-2-yl)methyl)-9H-purin-8-yl)phenoxy)-N-(4-hydroxybutan-2-yl)acetamide], for which the IC50 was 200 nM.

Consider `CCNC(=O)c1ccc(-c2nc3c(OC4(C)CC4)ncnc3n2Cc2cc(C)ccn2)c(Cl)c1` [Example T114, 3-chloro-N-ethyl-4-(6-(1-methylcyclopropoxy)-9-((4-methylpyridin-2-yl)methyl)-9H-purin-8-yl)benzamide], for which the IC50 is 316 nM.

On to `Cc1ccnc(Cn2c(-c3ccc(OCC(=O)N4CCC(F)CC4)cc3Cl)nc3c(OC4(C)CC4)ncnc32)c1` [Example T553, 2-(3-chloro-4-(6-(1-methylcyclopropoxy)-9-((4-methylpyridin-2-yl)methyl)-9H-purin-8-yl)phenoxy)-1-(4-fluoropiperidin-1-yl)ethan-1-one], for which the IC50 is 200 nM.

Take `Cc1ccnc(Cn2c(-c3ccc(OCC(=O)N4CC[C@@H](C#N)C4)cc3Cl)nc3c(OC4(C)CC4)ncnc32)c1` [Example T538, (R)-1-(2-(3-chloro-4-(6-(1-methylcyclopropoxy)-9-((4-methylpyridin-2-yl)methyl)-9H-purin-8-yl)phenoxy)acetyl)pyrrolidine-3-carbonitrile]: the IC50 was 501 nM.

On to `Cc1ccnc(Cn2c(-c3ccc(OCC4COC4)cc3Cl)nc3c(OC4(C)CC4)ncnc32)c1` [Example T193, 8-(2-chloro-4-(oxetan-3-ylmethoxy)phenyl)-6-(1-methylcyclopropoxy)-9-((4-methylpyridin-2-yl)methyl)-9H-purine], for which the IC50 was 251 nM.

Consider `Cc1ccnc(Cn2c(-c3ccc(CCNS(C)(=O)=O)cc3Cl)nc3c(OC4(C)CC4)ncnc32)c1` [Example T143, N-(3-chloro-4-(6-(1-methylcyclopropoxy)-9-((4-methylpyridin-2-yl)methyl)-9H-purin-8-yl)phenethyl)methanesulfonamide], for which the IC50 is 398 nM.

Still in this experiment, the particulars now being: Homo sapiens, DLD-1, first proliferation column; DLD-1 BRCA2-/-; read-out: POLQ PD Prolif Lumin (converted).
`CC1(Oc2ncnc3c2nc(-c2ccc(OCCN4C5CCC4CNC5)cc2Cl)n3Cc2ccccc2)CC1` [Example T605, 8-(4-(2-(3,8-diazabicyclo[3.2.1]octan-8-yl)ethoxy)-2-chlorophenyl)-9-benzyl-6-(1-methylcyclopropoxy)-9H-purine]: the IC50 was 158 nM.

Staying with this experiment, now noted: Homo sapiens, DLD-1, proliferation, luminescence, taken as DLD-1 BRCA2-/-; read-out: POLQ PD Prolif Lumin (converted).
For `CC(CCOc1ccc(-c2nc3c(OC4(C)CC4)ncnc3n2Cc2cccc(C(F)F)c2)c(Cl)c1)C(=O)O` (single isomer, unassigned) [Example T412, 4-(3-chloro-4-(9-(3-(difluoromethyl)benzyl)-6-(1-methylcyclopropoxy)-9H-purin-8-yl)phenoxy)-2-methylbutanoic acid], the IC50 is 251 nM.

With `Cc1ccnc(Cn2c(-c3ccc(C(=O)N4CCC[C@@H]4CO)cc3Cl)nc3c(OC4(C)CC4)ncnc32)c1` [Example T459, (R)-(3-chloro-4-(6-(1-methylcyclopropoxy)-9-((4-methylpyridin-2-yl)methyl)-9H-purin-8-yl)phenyl)(2-(hydroxymethyl)pyrrolidin-1-yl)methanone], the IC50 was 1260 nM.
